Counter-ions that a name gives are not always drawn. Bounds are passed on as bounds.

The nature of data set [1]: Pharmacokinetic performance of low dose doxepin capsules and tablets in healthy adult volunteers, crossover design. Type of data set: in vivo, human. The note with it: majority of subjects. As for the experimental part: The pharmacokinetic performance of oral, low dose doxepin formulations is well suited to the treatment of insomnia. The pharmacokinetic performance of capsules containing 1, 3 or 6 mg doxepin, as well as tablets containing 6 mg doxepin, was evaluated in healthy adult volunteers under a crossover design.
Of further interest to the pharmacokinetic performance of these doxepin formulations was the time necessary to reach certain plasma concentrations. Reaching particular concentrations in plasma can play a role in establishing therapeutic benefit. In particular, doxepin concentrations in plasma reach 0.05 ng/mL in the majority of subjects for all doses within 90 minutes after dosing. […] Such pharmacokinetic performance is beneficial in the treatment of insomnia, as reaching measurable plasma concentrations in a timely manner can be preferred for facilitating the onset of sleep.

Data set [2] relates to adult insomnia patients. Nature of the data set: Polysomnographic endpoints in adult insomnia patients treated with 3 mg doxepin.
For data set [3] the following is noted: Biopharmaceutic Classification System; cited from earlier work.

Consider `CN(C)CCC=C1c2ccccc2COc2ccccc21` [doxepin], for which, in data set [1] (3 and 6 mg doses), the “time after dosing to reach plasma concentration of 0.1 ng/mL” value was at most 60 min. In addition, the “time after dosing for doxepin plasma concentration to reach 0.05 ng/mL” value in data set [1] (all doses) was at most 90 min. In data set [2], the maintenance of sleep entry is reported as “persisted throughout the entire night (8 hours)” and the residual sedation result was “not followed by residual sedation”. Further, in data set [2] (polysomnographic endpoint), the “sleep onset, on average, after bedtime” value was 27 min.
For `CN(C)CCC=C1c2ccccc2COc2ccccc21` [doxepin HCl, Doxepin HCl], the solubility entry in data set [3] is listed as “high solubility”.

The values above are taken from patent publication US10548871B2, “Low-dose doxepin formulations and methods of making and using the same” (Pernix Sleep, Inc., priority 2007, dated 2020).
